{"source": "patent US20260007715A1", "about": "“WOUND CARE DEVICE” (priority 2019, published 2026)", "key": {"plasmatic coagulation": {"tested_on": "plasmatic coagulation", "conditions": "literature, Int. J. Mol. Sci. 2019, 20, 5426; cited from earlier work"}, "Horse blood": {"tested_on": "Horse blood", "assay": "Blood coagulation on hydrogel samples with different peptides, whole horse blood test (Experiment 3)", "format": "cell-based", "conditions": "citrated horse blood recalcified, 60 min at 37° C., washed three times with PBS, duplicate", "protocol": "Hydrogels were functionalized with 4 different types of antimicrobial peptides (AMPs). The AMPs used were PGLa, LL-37, Temporin B and RRP9W4. As control hydrogels without any attached AMPs were used.\nFresh citrated Horse blood was purchased from Håtunalab AB, Sweden and used to show how if presence of AMPs can induce clotting. In an Eppendorf tube, 1 ml of blood with 0.1 ml of 250 Mm calcium chloride (to reverse the citrate anticoagulant) was added and mixed.\nSamples were placed in 24 well plate and conditioned by adding 1 ml PBS to the hydrogels. After 15 minutes the samples were transferred to the Eppendorf tubes containing the blood. The tubes were then placed on shaker and incubated for 60 min at 37° C.\nAs blank controls, 1 ml of blood was added to an Eppendorf tube without any hydrogels and treated with the same conditions. […] Samples were run in duplicate."}}, "note": "“Also recorded” adds a separate entry of the source. Where no end group is shown, it is not given here."}
{"substance": "LL-37: human cathelicidin derived LL-37 peptide (LLGDFFRKSKEKIGKEFKRIVQRIKDFLRNLVPRTES; Antibacterial peptide LL-37; UniProt P49913 134-170, looked up)", "values": [{"measurement": "effect on plasmatic coagulation", "setting": "plasmatic coagulation", "value": "not to affect plasmatic coagulation"}, {"measurement": "Observations (clot on hydrogel)", "setting": "Horse blood", "value": "no clot formation; also recorded: did not form a strong clot; also recorded: No visible clot was observed"}]}
{"substance": "RRPRPRPRPWWWW-NH2 [RRP9W4, PRELP derived antimicrobial peptide]", "values": [{"measurement": "Observations (clot on hydrogel)", "setting": "Horse blood", "value": "large visible clot; also recorded: surprising clotting effect; also recorded: Big clot with firm attachment onto the surface"}]}
